{"source": "patent US20250222011A1", "about": "“DRUG TARGET FOR INHIBITING TUMOR, USE, AND ORAL DRUG” (CHI BIOTECH CO., LTD., priority 2024, published 2025)", "key": {"EEF2": {"biological_target": "T1, EEF2 (Homo sapiens, UniProt P13639)", "T1 construct": "a cell lysate was collected and centrifuged at 17,000 g; endogenous in cells; host or cells: H1299", "assay": "CESTA-WB (cellular thermal shift assay-Western blotting), H1299 cell lysate", "assay_type": "binding", "settings": "ATCA 10 nM to 10 mM, 55° C. for 3 min, FIG. 1", "protocol": "CESTA-WB experiment: H1299 cells were plated and cultured in a 15 cm dish, and when a cell density reached about 90% to 100%, the medium was aspirated; the cells were washed twice with PBS, and 2 mL of Lysis Buffer (RB Buffer, 10% N-Dodecyl-β-D-maltoside, and 1× protease inhibitor) was added to each dish and placed flatly on ice to allow lysis for 30 min, and a cell lysate was collected and centrifuged at 17,000 g, 4° C. for 10 min; a resulting supernatant was quantified using a BCA kit. 45 μL of a whole protein was added in a PCR tube, ATCA was added to final concentrations of 10 mM, 1 mM, 100 μM, 10 μM, 1 μM, 100 nM, and 10 nM, respectively, and allowed to stand at 25° C. for 30 min to allow the ATCA to fully interact with the whole protein; while another two tubes without ATCA were taken as controls. The experimental group was treated at 55° C. for 3 min, while one tube in the control group was treated at 37° C. for 3 min, and the other tube was treated at 50° C. for 3 min; centrifugation was conducted at 17,000×g for 10 min at 4° C. to remove denatured proteins. The supernatant was transferred into a new PCR tube, and 5 μg of the supernatant was added into 5×SDS Loading Buffer to allow denaturation in a 100° C. water bath; the Western Blotting was conducted to quantify EEF2, EIF2S1, B-actin, and Vinculin proteins.\nWestern Blotting experiment: the sample and molecular weight standard of pre-stained protein were loaded onto an SDS-PAGE gel (10 cmx 10 cm) to allow electrophoresis at 100 V for 40 min. The proteins in SDS-PAGE were transferred to nitrocellulose membrane at 100 V, 230 mA within 1 h. After transfer, the nitrocellulose membrane was washed with 25 mL of TBS for 5 min at room temperature. The nitrocellulose membrane was placed in 25 mL of blocking buffer (TBST, 5% skim milk) and incubated at room temperature for 1 h. The membrane was washed three times with 15 mL TBST, 5 min each. […]"}, "SOX2": {"tested_on": "SOX2", "assay": "Western blotting of SOX2 expression after ATCA treatment", "assay_type": "cell-based", "settings": "FIG. 4"}, "nascent peptides": {"tested_on": "nascent peptides", "assay": "Detection of nascent peptides (puromycin labelling, Western blotting)", "assay_type": "cell-based", "settings": "1 mg/mL, FIG. 6", "protocol": "Detection of nascent peptides: the cells were plated in a 6-well plate, with 200,000 cells in each well. After 24 h of adhesion, ATCA was added to make a working solution at a concentration of 1 mg/mL, while the control group was replaced with new medium. The experimental and control groups were treated for 2 h, 6 h, 12 h, 24 h, and 48 h separately, […], and cycloheximide was added to the positive control group for 10 min of treatment 25 min before sample collection. 10 μg/μL puromycin-labeled nascent peptide was added to all wells for 15 min, the medium was aspirated, the cells were washed twice with PBS, added with IP & WB lysis buffer to allow lysis on ice for 30 min, and centrifuged at 12,000 g for 20 min at 4° C. A resulting supernatant was transferred to a new centrifuge tube, 10 μg of protein was added to 5×SDS Loading Buffer, denatured in a 100° C. water bath for 10 min, and quantitatively detected by Western blotting. Western Blotting: the sample and molecular standard of pre-stained protein were loaded onto an SDS-PAGE gel (10 cm×10 cm) to allow electrophoresis at 100 V for 40 min. The proteins in SDS-PAGE were transferred to nitrocellulose membrane at 100 V, 230 mA within 1 h. After transfer, the nitrocellulose membrane was washed with 25 mL of TBS for 5 min at room temperature. […]"}, "liver cancer cells": {"tested_on": "liver cancer cells", "assay": "Proliferation of liver cancer cells (other experiments)", "assay_type": "cell-based"}}}
{"smiles": "O=C(O)C1=CC(=C(c2ccc(O)c(C(=O)O)c2)c2ccc(O)c(C(=O)O)c2)C=CC1=O", "note": "[ATCA, aurintricarboxylic acid]", "values": [{"measurement": "binding to non-target protein EEF2", "setting": "EEF2", "result": "did not bind"}, {"measurement": "SOX2 expression", "setting": "SOX2", "result": "downregulation"}, {"measurement": "protein synthesis (nascent peptides)", "setting": "nascent peptides; 2 h to 12 h after adding the drug", "result": "had not been significantly blocked"}, {"measurement": "number of new peptide chains compared with that without the drug", "setting": "nascent peptides; 24 h to 48 h after adding the drug", "result": "significantly reduced"}, {"measurement": "proliferation of liver cancer cells", "setting": "liver cancer cells", "result": "inhibit the proliferation"}]}
